{
  "source": "patent US6921775B2",
  "about": "“Methods for modulating brain damage” (Children's Medical Center Corporation, priority 2001, dated 2005)",
  "key": {"A2B5+ OL precursor cells": {"system": "A2B5+ OL precursor cells", "assay": "Cell proliferation (BrdU incorporation) in OL precursor cultures", "format": "cell-based, rat", "settings": "topiramate 30 μM, NBQX 100 μM; 24 hours, BrdU last 2 hours", "method": "Primary oligodendrocyte precursor cells were isolated from mixed glial cultures of the forebrains of newborn Sprague-Dawley rats using a selective detachment procedure as described in detail elsewhere (McCarthy and de Vellis, 1980; Back et al., 1998), and further purified by differential adhesion (Back et al., 1998). Precursor cells were maintained in a chemically-defined medium (CDM) supplemented with recombinant human platelet derived growth factor-AA (PDGF, 10 ng/ml) and basic fibroblast growth factor (bFGF, 10 ng/ml). […]\nCell proliferation was measured by determining the incorporation of the thymidine analog 5-bromo-2′-deoxyuridine (BrdU, […]) into replicating DNA of cells during the last 2 hr of the experiment. […] After the cells were incubated in a solution containing 2% BSA and 0.2% Triton X-100 for 30 min, BrdU incorporation was detected employing a murine monoclonal anti-BrdU antibody (Chemicon) and FITC-conjugated goat anti-mouse IgG. Quantitative analysis was performed by determining the percent of BrdU^+ cells in the A2B5^+ population. […] All assays were performed in triplicate and at least 1000 cells counted for each data point.\nThe proliferative capability of the cells was measured by the incorporation of the thymidine analog BrdU into DNA. […] A quantitative analysis was obtained by counting the number of BrdU^+ cells in the A2B5^+ population and calculating a percent. […]"}, "OL precursor cells": {"system": "OL precursor cells", "assay": "Cell lineage progression (stage-specific markers A2B5, O4, O1, MBP) in OL precursor cultures", "format": "cell-based, rat", "settings": "topiramate 30 μM, NBQX 100 μM; 0, 2, 6 and 10 days of maturation", "method": "Primary oligodendrocyte precursor cells were isolated from mixed glial cultures of the forebrains of newborn Sprague-Dawley rats using a selective detachment procedure as described in detail elsewhere (McCarthy and de Vellis, 1980; Back et al., 1998), and further purified by differential adhesion (Back et al., 1998). Precursor cells were maintained in a chemically-defined medium (CDM) supplemented with recombinant human platelet derived growth factor-AA (PDGF, 10 ng/ml) and basic fibroblast growth factor (bFGF, 10 ng/ml). The CDM was Dulbecco Modified Eagle's Medium (DMEM) containing D-glucose (25 mM), L-glutamine (4 mM), sodium pyruvate (1 mM), human apo-transferrin (50 μg/ml), bovine pancreatic insulin (5 μg/ml), sodium selenium (30 nM), hydrocortisone (10 nM), D-biotin (10 nM), and bovine serum albumin (BSA, 1 mg/ml). All chemicals were from Sigma. […] Cell lineage progression was monitored by the sequential emergence of stage-specific immunochemical markers: A2B5, O4, O1, and MBP, as described previously (Back et al., 1998). […] The effect of these protocols on maturation was also assessed. Differentiation of the cultures in the absence or presence of topiramate (30 μM) or NBQX (100 μM) was monitored by cell morphology and the sequential emergence of a panel of OL stage-specific markers (A2B5, O4, O1, and MBP), following 0, 2, 6, and 10 days of maturation."}},
  "data": [
    {"smiles": "CC1(C)O[C@@H]2[C@@H](CO[C@@]3(COS(N)(=O)=O)OC(C)(C)O[C@@H]23)O1", "note": "[topiramate]", "values": [
      {"measurement": "rate of BrdU incorporation (% BrdU+/A2B5+)", "setting": "A2B5+ OL precursor cells", "result": "Neither topiramate or NBQX altered the rate of BrdU incorporation"},
      {"measurement": "progression along the OL lineage (morphology, A2B5, O4, O1, MBP)", "setting": "OL precursor cells", "result": "indistinguishable from the progression of the control cultures"}
    ]},
    {"smiles": "NS(=O)(=O)c1cccc2c1c([N+](=O)[O-])cc1nc(O)c(O)nc12", "note": "[NBQX, 2,3-Dioxo-6-nitro-1,2,3,4-tetrahydrobenzo[f]quinoxaline-7-sulphonamide]", "values": [
      {"measurement": "rate of BrdU incorporation (% BrdU+/A2B5+)", "setting": "A2B5+ OL precursor cells", "result": "Neither topiramate or NBQX altered the rate of BrdU incorporation"},
      {"measurement": "progression along the OL lineage (morphology, A2B5, O4, O1, MBP)", "setting": "OL precursor cells", "result": "indistinguishable from the progression of the control cultures"}
    ]}
  ]
}
